Results reported in patent US12144834B2, “Methods and compositions for treating gastrointestinal and inflammatory disorders” (Xbiome Inc., priority 2018, dated 2024).
Converted amounts (≈) assume the structure as drawn. Like-named read-outs stand apart in the source and are kept apart here.

Experiments:
BTH01 = test: Phenotypic antibiotic susceptibility (MIC), research cell bank; format: cell-based, Bacteroides thetaiotaomicron; conditions: for MIC: Bacteroides thetaiotaomicron, read-out: Determined MIC; for MIC Interpretation: against BTH01
EHA01 = test: Phenotypic antibiotic susceptibility (MIC, Etests), research cell bank; format: cell-based, Eubacterium hallii; conditions: for MIC: Anaerobutyricum hallii, read-out: Determined MIC; for MIC Interpretation: against EHA01
RHO01 = test: as above; format: cell-based, Roseburia hominis; conditions: for MIC: Roseburia hominis, read-out: Determined MIC; for MIC Interpretation: against RHO01

| SMILES | MIC (BTH01; against BTH01, agar dilution) [µg/mL] | MIC Interpretation (BTH01) | MIC (EHA01; against EHA01, Etests) [µg/mL] | MIC Interpretation (EHA01) | MIC (RHO01; against RHO01, Etests) [µg/mL] | MIC Interpretation (RHO01) | MIC (BTH01) [µg/mL] | MIC (EHA01) [µg/mL] | MIC (RHO01) [µg/mL] |
| --- | --- | --- | --- | --- | --- | --- | --- | --- | --- |
| CC1(C)S[C@@H]2[C@H](NC(=O)[C@H](N)c3ccccc3)C(=O)N2[C@H]1C(=O)O [Ampicillin] | 32 (≈ 91.6 µM) | R | 0.06 (≈ 0.172 µM) | S | ≤ 0.016 | S |  |  |  |
| CO[C@@]1(NC(=O)C2SC(=C(C(N)=O)C(=O)O)S2)C(=O)N2C(C(=O)O)=C(CSc3nnnn3C)CS[C@@H]21 (some centres unmarked) [Cefotetan] | 256 (≈ 445 µM) | R |  |  |  |  |  |  |  |
| CCC[C@@H]1C[C@@H](C(=O)N[C@@H]([C@H]2O[C@H](SC)[C@H](O)[C@@H](O)[C@H]2O)[C@H](C)Cl)N(C)C1 [Clindamycin] | > 32 | R | 0.03 (≈ 0.0706 µM) | S | ≤ 0.016 | S |  |  |  |
| C[C@@H](O)[C@H]1C(=O)N2C(C(=O)O)=C(SCCN=CN)C[C@H]12 [Imipenem] | 0.5 (≈ 1.67 µM) | S | 0.008 (≈ 0.0267 µM) | S | 0.12 (≈ 0.401 µM) | S |  |  |  |
| Cc1ncc([N+](=O)[O-])n1CCO [Metronidazole] | 2 (≈ 11.7 µM) | S | 0.06 (≈ 0.351 µM) | S | 0.03 (≈ 0.175 µM) | S |  |  |  |
| COc1c(N2C[C@@H]3CCCN[C@@H]3C2)c(F)cc2c(=O)c(C(=O)O)cn(C3CC3)c12 [Moxifloxacin] | 2 (≈ 4.98 µM) | S | 2 (≈ 4.98 µM) | S | 32 (≈ 79.7 µM) | R |  |  |  |
| CN[C@H](CC(C)C)C(=O)N[C@H]1C(=O)N[C@@H](CC(N)=O)C(=O)N[C@H]2C(=O)N[C@H]3C(=O)N[C@H](C(=O)N[C@H](C(=O)O)c4cc(O)cc(O)c4-c4cc3ccc4O)[C@H](O)c3ccc(c(Cl)c3)Oc3cc2cc(c3O[C@@H]2O[C@H](CO)[C@@H](O)[C@H](O)[C@H]2O[C@H]2C[C@](C)(N)[C@H](O)[C@H](C)O2)Oc2ccc(cc2Cl)[C@H]1O [Vancomycin] |  |  |  |  |  |  | 64 (≈ 44.2 µM) | 0.12 (≈ 0.0828 µM) | 0.25 (≈ 0.173 µM) |
